Type in all cases: in vivo
Experiment [1] has as its system heart of Balb/c mice transplanted to C57bl/6 mice. Kind of experiment: mice heart transplantation model (graft survival). To be noted: Balb/c heart to C57bl/6; 150 mg/kg intraperitoneal day 0 to day 6; survive up to 100 days. The text has this: 1) Application of TJM2010-5 in Mice Heart Transplantation Model
Four groups are set in the experiment, which are: control group (conducting heart transplantation without any treatment), CMC group (vehicle control group), TJM2010-5 treatment group (effect detection group) and ciclosporinA (CsA) control group. The specific treatment methods as follows:
Control group: Take and transplant the heart of Balb/c mice to the abdominal cavity of C57bl/6 mice, and no special treatment is provided after operation;
CMC control group: Take and transplant the heart of Balb/c mice to the abdominal cavity of C57bl/6 mice, and provide intraperitoneal injection of sodium carboxymethyl cellulose (0.5% CMC) solution without TJM2010-5 on day 0 to day 6 after the heart transplantation, and the dose is 200 μl.
TJM2010-5 treatment group: Take and transplant the heart of Balb/c mice to the abdominal cavity of C57bl/6 mice, and provide intraperitoneal injection of TJM2010-5 dissolved in CMC on day 0 to day 6 after the heart transplantation, and the dose is 150 mg/kg.
CsA treatment group: Take and transplant the heart of Balb/c mice to the abdominal cavity of C57bl/6 mice, and provide intraperitoneal injection of CsA on day 0 to day 6 after the heart transplantation, and the dose is 15 mg/kg/day. […]

The subject of another experiment is C57bl/6 mice. Kind of experiment: BLM (bleomycin) pulmonary inflammation model. As to the method:
1. Animal grouping: C57bl/6(B6) NaCl (200 μl nasal drip) group, C57bl/6 (B6) BLM group and TJM2010-5BLM group (provide intraperitoneal injection of TJM2010-5 dissolved in 0.5% CMC of 150 mg/kg/d on day 0-3, 5, 7, 9, 11, 13, 15).
2. Construct pulmonary inflammation model with BLM (bleomycin) nasal drips: conduct airway anesthesia with 40 μl of ketaminexylazine, and administrate BLM sulfate by nasal dripping (300 μg or 15 mg/kg).
3. Collect cell and cytokines with bronchoalveolar lavage fluid (BAL): Cut open the trachea and insert the plastic sleeve; then lavage with 0.3 ml of PBS at 37° C., and withdraw the lavage fluid (the withdrawn fluid is more than 95%), and repeat the process for 10 times. The lavage fluid consists of two parts: one part is used for detection of cytokins (600 g, conduct centrifugation for 10 min, collect and store the supernatant at −80° C. for detection); the other part is used for cell counting (0.4 ml, including substratum, suspension), count at 4° C.
4. Detect cells and factors in tissue with pulmonary homogenate: After BAL, take and grind the whole lung, and conduct centrifugation to take supernatant, then, store it at −80 C° for detection of MPO.
5. Conduct activity detection of pulmonary MPO: Completely lavage the lung with saline passing through right heart, and take pulmonary tissue homogenate, then conduct centrifugation to take supernatant. After that, suspend and precipitate it with 1 ml of PBS (including 0.5% of HTAB, 5 mM of EDTA). Conduct centrifugation, add 50 μl of supernatant into tube (200 μl of PBS-HTAB-EDTA, 2 ml of HBSS, 100 μl of o-dianisidine dihydrochloride (1.25 mg/ml), 100 μl of H2O2 0.05%), and put it into vortex water tank at 37° C. for 15 min. Then, stop the reaction with 100 μl of NaN3 1%, and detect the MPO absorption value with 460 nm.
6. Conduct cell counting: Dye with MG-1L for 4 min, and dye with 95% of GS-500 for 8 min. Then, make smear to count cells.
7. Conduct factor detection: detect the level of IL-6 with ELISA.

A further experiment deals with mice with pyohemia. Kind of experiment: pyohemia / septicopyemia lethal experiment (cecal ligation and puncture). The note with it: CLP; 250 mg/kg intragastric 4 times every 12 h; FIG. 15(b). The procedure: Part two: Observe the effect of MyD88 inhibitor on mortality of mice with pyohemia. The mice will be randomly divided into: sham-operation group, model group, MyD88 inhibitor treatment group. Except for the mice in sham-operation group that only receive post-operative suture, the mice in pyohemia model group and MyD88 inhibitor treatment group are provided with the cecal ligation and puncture (CLP), to copy the pyohemia mice model. At 1 h after operation, apply intragastric administration of 0.5% CMC 200 μL or TJM2010-5 of 250 mg/kg (200 μL) for 4 times successively, and each time lasts for 12 h. After operation, observe the survival rate of mice in each group every 12 h, and for 72 h successively.

In another experiment the test system is GVHD mice. Kind of experiment: GVHD model in irradiated BALB/c mice. The procedure:
Construction of GVHD model: Apply myeloablativetotal body irradiation (TBI, 710cGy) (HI-ENERGY PRIMV S-M X-ray source) on female BALB/c (H-2d) mice, and inject the bone marrow cell of […] of C57BL/6(B6, H-2^b) mice into it within 2 hours, and inject the B6spleen cells of […] into some of these female BALB/c (H-2d) mice at some time.
Groups: GVHD mice are divided into 4 groups, where the first group is control group, and the 8 mice in the group are provided with no post operation treatment; the second group is provided with intragastric administration of TJM2010-5 of 50 mg/kg/day since the day of irradiation; the third group is the MR1 group, in which the 8 mice are provided with the treatment of MR1 of 10 mg/kg/time on day 0, 1, 2, 3, 7 and 14 after irradiation; the forth group is the combination treatment group (TJM2010-5+MR1), in which the 8 mice are treated with TJM2010-5 and MR1 by the method mentioned above.
In case TJM2010-5 is combined with MR1, it can reverse 100% of GVHD. However, other aminothiazole compounds have no or little such curative effect.

The structures appear in SMILES notation.

On to `O=C(CCN1CCN(Cc2ccccc2)CC1)Nc1nc(-c2ccccc2)cs1` [TJM2010-5, 3-(4-benzylpiperazin-1-yl)-N-(4-phenylthiazol-2-yl) propanamide], for which the “heart allograft surviving up to 100 days” value in experiment [1] amounted to 80%. Moreover, in the experiment with C57bl/6 mice (150 mg/kg/d intraperitoneal, FIG. 10b), the “recruitment of bronchialveolar neutrophile granulocyte” value was “reduces significantly”. The “level of IL-6 in lung tissue” value in the experiment with C57bl/6 mice (at 24 h, FIG. 11b) is “reduces”. The “total cell numbers in bronchial alveolar vs WT mice” value in the experiment with C57bl/6 mice (day 1, 7, 11, FIG. 10a) is “statistical differences”. Also, the “MPO factor in lung tissue” value in the experiment on C57bl/6 mice (detection on day 7, FIG. 11a) is listed as “reduced”. In addition, the “death time and final mortality of pyohemia in mice” value with mice with pyohemia is “significantly improve”. Besides, the “weight vs control group” value in the experiment with GVHD mice (50 mg/kg/day intragastric since day of irradiation, FIG. 2a-A) is reported as “higher than that of control group”. For the same compound, the “GVHD level vs control group” value in the experiment on GVHD mice (50 mg/kg/day intragastric, FIG. 2a-B) is on record as “significantly lower than that of control group”. In addition, the “survival rate vs control group” value in the experiment on GVHD mice (50 mg/kg/day intragastric, FIG. 2a-C) is recorded as “significantly higher than that of control group”. In the experiment with GVHD mice (FIG. 2c), the “general performances of mice” value was “close to normal mice”. In the experiment on GVHD mice (TJM2010-5 alone or combined with MR1), the GVHD reversed was 70%. In the experiment on GVHD mice (each TJM2010 compound combined with MR1, 50 mg/kg/day intragastric, 8 mice per group), the “survival rates of the mice after 60 days” value was determined as 100%.

Source of the values: patent US20180318291A1, “USE OF AMINOTHIAZOLE MYD88 SPECIFIC INHIBITOR TJM2010-5” (WUHAN INNAMUNE PHARMACEUTICAL INC. LTD., priority 2015, published 2018).
